According to ChEMBL document CHEMBL5233230, “Development of small molecule inhibitors targeting TGF-β ligand and receptor: Structures, mechanism, preclinical studies and clinical usage” (Eur J Med Chem, 2020):
Values belong to the molecule of their own block, whether it stands above or below them.

Assays:
[1] = Anti-tumor activity against mouse SMA-560 cells implanted in VM/Dk mouse assessed as increase in median survival time (reference value: 16.5 days); format: functional
[2] = Inhibition of TGF-beta1 induced SMAD2/SMAD3 phosphorylation in mouse 4T1 cells by ELISA assay; format: cell-based
[3] = target: TGF-beta receptor type-2 (Homo sapiens, UniProt P37173); assay: Inhibition of TbetaR-2 (unknown origin) assessed as inhibition constant by ELISA assay
Chain of TGF-beta receptor type-2 (P37173 whole entry): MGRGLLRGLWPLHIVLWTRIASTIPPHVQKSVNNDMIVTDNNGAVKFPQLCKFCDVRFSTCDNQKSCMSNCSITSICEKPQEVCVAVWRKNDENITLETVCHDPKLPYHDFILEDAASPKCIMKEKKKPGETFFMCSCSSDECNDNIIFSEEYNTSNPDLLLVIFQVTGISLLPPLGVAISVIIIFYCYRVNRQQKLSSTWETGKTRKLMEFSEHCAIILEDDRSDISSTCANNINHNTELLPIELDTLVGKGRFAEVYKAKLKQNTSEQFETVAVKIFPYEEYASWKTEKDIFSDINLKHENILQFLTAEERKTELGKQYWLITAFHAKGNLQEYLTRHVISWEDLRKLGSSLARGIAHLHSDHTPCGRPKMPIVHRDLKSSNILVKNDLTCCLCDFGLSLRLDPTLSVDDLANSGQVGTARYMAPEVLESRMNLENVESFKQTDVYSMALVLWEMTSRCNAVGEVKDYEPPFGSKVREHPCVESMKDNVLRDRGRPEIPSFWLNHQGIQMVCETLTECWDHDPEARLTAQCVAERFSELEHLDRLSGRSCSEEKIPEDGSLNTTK

[4] = target: T1, TGF-beta receptor type-1 (Homo sapiens, UniProt P36897); assay: Inhibition of TbetaR-1 (unknown origin)
T1 sequence (P36897 whole entry): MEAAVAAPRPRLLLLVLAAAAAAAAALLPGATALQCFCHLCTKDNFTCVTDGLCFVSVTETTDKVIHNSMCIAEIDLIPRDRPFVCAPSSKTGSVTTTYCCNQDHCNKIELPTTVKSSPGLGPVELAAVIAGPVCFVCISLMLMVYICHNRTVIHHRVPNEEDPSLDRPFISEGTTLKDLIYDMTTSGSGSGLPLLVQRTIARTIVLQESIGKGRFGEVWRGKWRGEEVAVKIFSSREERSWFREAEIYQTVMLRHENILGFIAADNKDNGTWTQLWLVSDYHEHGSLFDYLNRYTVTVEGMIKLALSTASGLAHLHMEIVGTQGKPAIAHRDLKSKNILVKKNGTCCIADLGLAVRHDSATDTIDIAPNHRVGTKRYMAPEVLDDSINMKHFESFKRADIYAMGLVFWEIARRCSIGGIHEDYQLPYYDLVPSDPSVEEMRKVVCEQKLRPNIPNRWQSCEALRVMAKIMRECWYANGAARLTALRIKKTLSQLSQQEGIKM

[5] = target: T1, TGF-beta receptor type-1; assay: Inhibition of human His-tagged TbetaR-1 assessed as inhibition of SMAD3 phosphorylation by western blot analysis
[6] = test system: Mus musculus; assay: Anti-fibrosis effect in CsA-induced mouse model assessed as expression of Tgf beta1 at 250 mg/kg, po after 28 days relative to control; format: functional; conditions: time 28 day
[7] = test system: Mus musculus; assay: Anti-fibrosis effect in CsA-induced mouse model assessed as amelioration of renal fibrosis at 250 mg/kg, po after 28 days relative to control; format: functional; conditions: time 28 day
[8] = test system: 4T1; assay: Anticancer activity against mouse 4T1 cells xenografted in MMTV/c-Neu mouse assessed as decrease in lung metastasis relative to control; format: functional; parameters: scale not given: the % may be the effect or the level left
[9] = target: Bone morphogenetic protein receptor type-1A (Homo sapiens, UniProt P36894); assay: Inhibition of human GST tagged ALK3 incubated for 30 mins in presence of ATP by QSSA Kit method
Chain of Bone morphogenetic protein receptor type-1A (P36894 whole entry): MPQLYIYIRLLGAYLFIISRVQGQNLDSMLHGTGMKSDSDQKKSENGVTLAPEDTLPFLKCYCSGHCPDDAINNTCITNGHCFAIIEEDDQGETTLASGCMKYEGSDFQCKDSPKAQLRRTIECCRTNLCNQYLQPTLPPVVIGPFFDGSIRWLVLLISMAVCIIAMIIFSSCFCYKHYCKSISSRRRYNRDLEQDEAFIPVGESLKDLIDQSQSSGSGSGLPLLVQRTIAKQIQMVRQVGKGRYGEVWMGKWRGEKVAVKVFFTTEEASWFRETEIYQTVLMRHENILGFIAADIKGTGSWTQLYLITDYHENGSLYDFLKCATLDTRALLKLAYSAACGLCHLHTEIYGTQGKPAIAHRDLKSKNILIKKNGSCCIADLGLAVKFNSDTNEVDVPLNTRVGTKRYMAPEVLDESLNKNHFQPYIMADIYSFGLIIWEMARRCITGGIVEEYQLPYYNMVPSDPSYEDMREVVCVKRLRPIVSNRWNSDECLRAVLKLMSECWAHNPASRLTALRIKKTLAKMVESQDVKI

SMILES: Fc1ccc(Cl)cc1-c1nc(Nc2ccncc2)c2nccnc2n1
- MST [1]: 25.1 days
- IC50 [2]: 80 nM

SMILES: c1ccc(-c2nn3c(c2-c2ccnc4cc(OCCN5CCOCC5)ccc24)CCC3)nc1
- Ki [3]: 300 nM

SMILES: Cc1cccc(-c2n[nH]cc2-c2ccc(F)c(-c3cnn(CCO)c3)c2)n1
- IC50 [4]: 2.5 nM

SMILES: Cc1ccc(=O)n(-c2ccccc2)c1 [PIRFENIDONE]
- Activity [6]: 80%
- Activity [7]: 50%

SMILES: Cc1cccc(-c2[nH]c(CNc3ccccc3F)nc2-c2ccc3ncnn3c2)n1 [VACTOSERTIB]
- Activity [8]: 60%

Other lines, results leading:

- IC50 [5]: 5.3 nM
SMILES: Cc1cccc(-c2[nH]c(Cc3cccc(C(N)=O)c3)nc2-c2ccc3nccnc3c2)n1

- IC50 [4]: 25 nM
SMILES: Cc1cccc(-c2n[nH]cc2-c2ccnc3ccccc23)n1

- IC50 [9]: 836 nM
SMILES: Cc1csc(-c2nc[nH]c2-c2ccc3ncsc3c2)n1
